{"source": "patent US9839701B2", "about": "“Aromatic amino acid derivative and positron emission topography (PET) probe using the same” (OSAKA UNIVERSITY, priority 2013, dated 2017)", "key": {"human LAT1": {"target": "T1, human LAT1 (Homo sapiens, UniProt Q01650)", "T1 construct": "expressed in transfected cells", "T1 sequence (Q01650 whole entry, one chain of several)": "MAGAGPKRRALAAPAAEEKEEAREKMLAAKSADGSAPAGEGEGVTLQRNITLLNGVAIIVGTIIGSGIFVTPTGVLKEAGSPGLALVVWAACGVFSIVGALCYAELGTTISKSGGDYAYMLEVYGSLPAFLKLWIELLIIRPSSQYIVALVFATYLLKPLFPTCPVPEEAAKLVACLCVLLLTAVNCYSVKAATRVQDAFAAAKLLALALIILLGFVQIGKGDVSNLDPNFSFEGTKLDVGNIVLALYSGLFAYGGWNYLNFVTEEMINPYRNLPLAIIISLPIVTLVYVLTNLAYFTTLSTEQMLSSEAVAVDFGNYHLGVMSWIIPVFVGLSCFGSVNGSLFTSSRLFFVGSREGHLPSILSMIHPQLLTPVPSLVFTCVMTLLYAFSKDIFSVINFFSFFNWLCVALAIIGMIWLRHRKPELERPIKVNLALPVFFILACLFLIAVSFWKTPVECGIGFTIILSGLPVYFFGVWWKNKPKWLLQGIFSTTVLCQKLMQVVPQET", "experiment": "Inhibition of amino acid uptake in human LAT1 stably expressing cell line", "type": "cell-based", "description": "(§1) A human LAT1 expression vector or a human LAT2 expression vector was transfected using Lipofectamine (registered trademark) 2000 (Invitrogen) into a human embryonic kidney cell line HEK293. G418-resistant HEK293 clones were selected, and among them, a clone showing human LAT1-specific amino acid uptake and a clone showing human LAT2-specific amino acid uptake were selected and established as a human LAT1 stably expressing cell line and a human LAT2 stably expressing cell line, respectively (Khunweeraphong et al. J Pharmacol Sci. 2012 Aug. 18; 119(4): 368-80. Epub 2012 Jul. 31).\n(§2) The human LAT1 stably expressing cell line and the human LAT2 stably expressing cell line were seeded at 1.2×10^5 cells/well on separate collagen-coated 24-well plates, and after 48 hours, the cells were washed 3 times with an uptake buffer (Na^2+-free Hank's balanced salt solution (HBSS), pH 7.4) prewarmed at 37° C. Compound 10a, compound 10b or a positive control FAMT (fluoro-α-methyltyrosine) was added at 100 μM, and incubation was performed at 37° C. for 3 minutes. Cells not treated with any of these compounds were used as a negative control. After the incubation, 1 μM of [^14C]L-leucine or [^14C]alanine was added to the wells, [^14C]L-leucine or [^14C]alanine uptake was allowed to proceed for 1 minute, and the cells were washed 3 times with an ice-cold uptake buffer. Subsequently, 500 μL of 0.1 M NaOH was added to each well for cell lysis, 20 μL of the lysate was used for the measurement of the protein concentration, and the remaining lysate was used for the measurement of the intracellular radioactivity. The measured radioactivity was normalized to the protein concentration, and on the assumption that the amino acid uptake activity in the negative control was 100%, the percentage (%) of inhibition of amino acid uptake in the presence of each compound was calculated.\n(§3) Using the same cell lines as described in Example 2, the compound of Example 1 was examined for the inhibitory effect on leucine or alanine uptake in the human LAT1 stably expressing cell line and the human LAT2 stably expressing cell line in the same manner as in Example 2. FAMT was used as the positive control. The compound of Example 1 or FAMT was added at 100 μM. Cells not treated with either of these compounds were used as a negative control. On the assumption that the amino acid uptake activity in the negative control (control) was 100%, the percentage (%) of inhibition of amino acid uptake in the presence of FAMT or the compound of Example 1 was calculated. In addition, the cancer cell selectivity was calculated as the ratio of the amino acid uptake activity in the human LAT2 stably expressing cell line relative to that in the human LAT1 stably expressing cell line.\n(§4) In another experiment, the cells were treated with the compound of Example 1 at eight different concentrations (0.1, 1, 3, 10, 30, 100, 300 and 1000 μM), and the concentration causing 50% inhibition of amino acid uptake was calculated as the IC50 value.\n(§5) A human LAT1 stably expressing cell line and a human LAT2 stably expressing cell line, each of which was the same as described in Example 2, were seeded at 1.2×10^5 cells/well, and after 48 hours, the cells were washed 3 times with an uptake buffer (Na^2+-free Hank's balanced salt solution (HBSS), pH 7.4) prewarmed at 37° C. The test compounds, L-tyrosine or the positive control FAMT (fluoro-α-methyltyrosine) was added at 30 μM, and incubation was performed at 37° C. for 3 minutes. Cells not treated with any of these compounds were used as a negative control. After the incubation, 1 μM of [^14C]L-leucine or [^14C]alanine was added to the wells, [^14C]L-leucine or [^14C]alanine uptake was allowed to proceed for 1 minute, and the cells were washed 3 times with an ice-cold uptake buffer. […]"}, "human LAT2": {"target": "T2, human LAT2 (Homo sapiens, UniProt Q9UHI5)", "T2 construct": "expressed in transfected cells", "T2 sequence (Q9UHI5 1-535)": "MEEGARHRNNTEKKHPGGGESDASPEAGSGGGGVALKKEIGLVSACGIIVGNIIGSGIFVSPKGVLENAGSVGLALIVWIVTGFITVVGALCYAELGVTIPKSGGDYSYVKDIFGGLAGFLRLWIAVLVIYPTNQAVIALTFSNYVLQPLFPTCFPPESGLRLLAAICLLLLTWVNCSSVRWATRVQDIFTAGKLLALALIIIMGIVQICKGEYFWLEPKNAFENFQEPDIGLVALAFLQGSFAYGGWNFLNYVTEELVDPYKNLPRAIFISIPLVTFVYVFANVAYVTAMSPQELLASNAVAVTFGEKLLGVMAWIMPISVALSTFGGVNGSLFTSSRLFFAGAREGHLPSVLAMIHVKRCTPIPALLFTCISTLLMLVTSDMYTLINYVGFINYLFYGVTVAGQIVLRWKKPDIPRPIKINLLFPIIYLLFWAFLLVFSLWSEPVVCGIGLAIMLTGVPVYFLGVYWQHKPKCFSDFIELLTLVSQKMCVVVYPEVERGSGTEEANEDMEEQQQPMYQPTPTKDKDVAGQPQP", "T2 sequence (P08195 1-529 partner)": "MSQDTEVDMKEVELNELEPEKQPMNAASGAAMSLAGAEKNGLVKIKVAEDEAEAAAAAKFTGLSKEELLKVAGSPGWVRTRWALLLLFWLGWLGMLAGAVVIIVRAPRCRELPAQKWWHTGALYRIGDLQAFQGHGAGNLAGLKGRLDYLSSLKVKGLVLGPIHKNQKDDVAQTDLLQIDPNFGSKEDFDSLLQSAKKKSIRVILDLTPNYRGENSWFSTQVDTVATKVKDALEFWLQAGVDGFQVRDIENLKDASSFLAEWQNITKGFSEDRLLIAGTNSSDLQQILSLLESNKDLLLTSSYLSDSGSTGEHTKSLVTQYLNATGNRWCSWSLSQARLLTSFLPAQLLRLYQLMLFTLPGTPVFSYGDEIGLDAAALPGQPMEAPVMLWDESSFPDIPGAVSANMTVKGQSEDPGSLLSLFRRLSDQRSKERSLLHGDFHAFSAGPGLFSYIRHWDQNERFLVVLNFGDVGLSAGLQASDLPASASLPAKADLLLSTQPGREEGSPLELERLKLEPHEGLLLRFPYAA", "experiment": "Inhibition of amino acid uptake in human LAT2 stably expressing cell line", "type": "cell-based", "description": "as §1, §2, §3, §4, §5"}, "[1]": {"conditions": "eight concentrations 0.1-1000 μM"}}}
{"smiles": "NC(Cc1cc(OCCF)ccc1I)C(=O)O", "note": "(centres unmarked) [Example 1, 2-amino-3-(5-(2-fluoroethoxy)-2-iodophenyl)propanoic acid]", "values": [{"measurement": "inhibition at 100 µM", "setting": "human LAT1; HEK293, compound at 100 μM, human LAT1 stably expressing HEK293 cell line, 1 μM [14C]L-leucine or [14C]alanine, 1 min uptake, read-out: Percentage of inhibition of LAT1-mediated amino acid uptake", "result": 92.5, "unit": "%"}, {"measurement": "IC50", "setting": "human LAT1; [1]", "result": 9.2, "unit": "µM"}, {"measurement": "Selectivity for LAT1 over LAT2", "setting": "human LAT1; from IC50 values", "result": "≥ 9", "unit": "times"}, {"measurement": "inhibition at 100 µM", "setting": "human LAT2; HEK293, compound at 100 μM, human LAT2 stably expressing HEK293 cell line, 1 μM [14C]L-leucine or [14C]alanine, 1 min uptake, read-out: Percentage of inhibition of LAT2-mediated amino acid uptake", "result": 55.1, "unit": "%"}, {"measurement": "IC50", "setting": "human LAT2; [1]", "result": 84, "unit": "µM"}]}
